Measured values: a melting point compilation (Tetko et al.; mined from patent text by program, amines drawn as free bases though some values may be those of a salt)

| Structure (SMILES) | melting point |
| --- | --- |
| N#Cc1ccc(Nn2cnnc2)cc1-c1ccc(C(F)(F)F)cc1 | 140 to 143 °C |
| COc1ccc(CCNC(=O)CN(C(C)=O)c2cccc(C(N)=O)c2)cc1OC | 111 to 113 °C |
| COc1ccc(-c2nc3ncn(C)c(=S)n3n2)cc1 | > 300 °C |
| CC(=O)C(c1ccc(Cl)cc1)c1c(Cl)cc(-n2ncc(=O)[nH]c2=O)cc1Cl (stereo unspecified) | 208 °C |
| CCCc1c(OCCCCCCc2ccc3cc(OCc4ccccc4)c(OCc4ccccc4)cc3c2)ccc(C(=O)OCc2ccccc2)c1O | 94 to 97 °C |
| C=C(F)C(=O)Oc1c(Cl)cc(C#N)cc1Cl | 95 to 99 °C |
| CCCCn1c(=O)c2cn(S(=O)(=O)c3ccc(OC(F)(F)F)cc3)nc2n(CCCC)c1=O | 135 to 137 °C |
| O=C(Nc1ccccc1)c1cn(-c2ccccc2)c2ccccc2c1=O | 203 to 205 °C |
| CC(C)(C)OC(=O)N1C[C@@H](Sc2ccccc2)C[C@H]1C(=O)O | 110 to 118 °C |
| Cc1ccccc1C(=O)Nc1ccc(C(=O)O)cn1 | 235 to 238 °C |
| O=C(Nc1ccc(-c2nnn[nH]2)cc1)C(F)(F)C(F)(F)C(F)(F)F | 266 to 268 °C |
| COc1ccc2c(c1)CC(CC(C)=O)C2=O (racemic) | 73 °C |
| O=C(Nc1nc(C2CC2)no1)C1c2ccccc2Oc2ccccc21 | 275 °C |
| O=C(NOC1CCCCO1)c1cnc(N2CCC(NS(=O)(=O)c3ccc4ccccc4c3)CC2)nc1 (stereo unspecified) | 226 °C |
| CCCCCCCCCCCCCCn1ccc(C(=O)O)c1 | 66 to 67 °C |
| Cc1ccc(C(=O)C2=C(O)C(=O)N(c3ncc(S(=O)(=O)N(C)C)s3)C2c2ccc(C(C)C)cc2)cc1 (stereo unspecified) | 237 to 241 °C |
| Cn1ccnc1-c1ccc(C(=O)CN=[N+]=[N-])cc1 | > 250 °C |
| O=S1CCc2nn(-c3ccc(Cl)cc3F)c(Cl)c2C1 (stereo unspecified) | 119 to 122 °C |
| CCOC(=O)c1cn(C)c2ccc(C(=O)c3c(C)cc4ccccn34)cc2c1=O | 232 °C |
| COCCn1c(C)c(C(=O)c2c(Cl)c(Cl)c(Cl)c(Cl)c2C(=O)O)c2ccccc21 | 182 to 184 °C |
| CN1CCN(CCO)Cc2ccc(Nc3ncc(Cl)c(N[C@@H]4CCCC[C@H]4NS(C)(=O)=O)n3)cc21 | 181 to 190 °C |
| O=C(CN1C(=O)c2ccccc2C1=O)c1ncc(C(F)(F)F)cc1Cl | 162 °C |
| CC(=O)c1ccc2sc3ccccc3c2c1 | 97 to 100 °C |
| Cc1ccc(-c2cc(NCc3cccc(CNc4cc(-c5ccc(C)cc5)[nH]n4)n3)n[nH]2)cc1 | 154 °C |

| Structure (SMILES) | melting point |
| --- | --- |
| CON=C(C(C)=C(ON)c1ccccc1C(=NOC)C(=O)OC)c1ccc(Cl)cc1 | 115 to 117 °C |
| NC(=O)c1cc2ccccc2[nH]1 | 231 to 232 °C |
| C(=C\c1cc(/C=C/c2ccc3cc[nH]c3c2)[nH]n1)/c1ccc(N2CCOCC2)cc1 | 236 to 238 °C |
| CC(C)c1ccc2c(c1)CCC1C(C)(C(=O)O)CCCC21C (stereo unspecified) | 168 to 170 °C |
| CC(C)(C)C(=O)Oc1ccc(S(=O)(=O)c2ccc(S(N)(=O)=O)s2)cc1 | 192 to 195 °C |
| O=C(NC(=O)c1c(F)cccc1Cl)Nc1cnc(Oc2ccc(Cl)c3c2CCCC3)c(Cl)c1 | 244 °C |
| COC(=O)C(=Cc1ccc(OC)c(OC)c1)NC(C)=O | 198 to 200 °C |
| CCCCc1nc2c(N)nc3ccccc3c2n1CCCCSc1ccccc1 | 118 to 120 °C |
| COc1cccc(NS(=O)(=O)c2ccc(N)cc2)c1 | 142 to 145 °C |
| CN(c1ccccc1)S(=O)(=O)c1ccc(C=CC(C)(O)C(F)(F)F)cc1 (stereo unspecified) | 146 to 148 °C |
| Nc1ccccc1C(=O)NCCCN1CCC(C(=O)c2ccc(F)cc2)CC1 | 113 °C |
| NS(=O)(=O)c1cccc(-c2cccc(-c3nc(-c4ccc(Cl)cc4Cl)cc(C(F)(F)F)n3)c2)c1 | 202 °C |
| CC(=O)Nc1cc2c(cc1[N+](=O)[O-])[C@@H](NC(C)=O)[C@H](O)C(C)(C)O2 (relative stereo) | 256 to 259 °C |
| CCOC(c1ccc(C=NO)cc1)(c1ccc2[nH]c(=O)cc(-c3cccc(Cl)c3)c2c1)c1cncn1C (stereo unspecified) | 232 °C |
| COc1cc(NC(=O)Nc2cccc3c2C2CC(OC)CCN2C3=O)nc2ccccc12 (stereo unspecified) | > 260 °C |
| O=C(O)c1ccc2ccc(S)cc2c1 | 211 to 216 °C |
| O=C1OC(=O)c2cc3ncccc3c3cc([N+](=O)[O-])cc1c23 | > 300 °C |
| Cc1cc(C(C)(C)C)c(C)c(O)c1-c1c(C)cc(C(C)(C)C)c(C)c1O | 103 to 105 °C |
| CN1C(=O)c2cccnc2NS1(=O)=O | 290 to 292 °C |
| CCc1nc2cc(NC(C)=O)c(Cl)cc2n1-c1ccc(CCNC(=O)NS(=O)(=O)c2ccc(C)cc2)cc1 | 125 to 133 °C |
| CCc1c2nc(-c3cc(S(C)(=O)=O)ccc3OCC(C)C)[nH]c(=O)c2nn1C1CCNCC1 | 263 to 265 °C |
| Oc1ccc(-c2nn(C3CCCC3)c3c(F)cccc23)cc1 | 131 °C |
| CC1(C)CC(C)(C)c2cc(Cl)c(O)cc21 | 52 °C |
| O=C1C(=O)c2ccc(-c3ccccc3)cc2C2=C1SCC1(CCN(C(=O)c3cccc(Cl)c3)CC1)O2 | 240 to 241 °C |

| Structure (SMILES) | melting point |
| --- | --- |
| O=C(O)CCCc1c(-c2ccc(F)cc2)[nH]c2ccc(-c3ccc(O)cc3)cc12 | 180 to 183 °C |
| COc1cccc(COCc2cccc(OC)c2OC)c1OC | 58 to 60 °C |
| COc1c(N2CC3CC3(CN)C2)c(F)cc2c(=O)c(C(=O)O)cn(C3CC3)c12 (stereo unspecified) | 194 to 196 °C |
| CC1(C)C2CC[C@]1(C)C(=O)C(C(=O)Nc1ccc(Cl)c(Cl)c1)C2=O (stereo partly specified) | 88 to 90 °C |
| CC(=O)O[C@H]1C[C@@H](n2ccc(=O)cc2)[C@H](O)[C@@H]1O (racemic) | 191 to 196 °C |
| CN(C=O)c1cc([N+](=O)[O-])cc([N+](=O)[O-])c1 | 93 to 94 °C |
| COc1cc(C)nc2c(OCc3c(Cl)ccc(N(C)C(=O)CN4C(=O)c5ccccc5C4=O)c3Cl)cccc12 | 209 to 210 °C |
| CC1(C)OC(=O)Nc2ccc(-c3cccc(C#C[Si](C)(C)C)c3)cc21 | 240 to 242 °C |
| COCC(COC)Oc1cc(Oc2ccc(S(C)(=O)=O)nc2)cc2cc(C3=NCC(CCO)S3)[nH]c12 (stereo unspecified) | 69 to 71 °C |
| CCOCCOc1nc(NC(C)=O)nc2ccc(Cl)nc12 | 185 °C |
| N#Cc1c(-c2ccccc2)c(-c2ccccc2)nn(CC(=O)NN)c1=O | 191 to 192 °C |
| Nc1cc(Br)ccc1-c1ccc(F)cc1F | 67 to 69 °C |
| CC[C@H](C)[C@H](NC(=O)O[C@@H](CC(C)C)C(=O)OCc1ccccc1)C(N)=O | 140 to 141 °C |
| O=C(O)CC1(CCCCCCCCCCC2(C(=O)O)CC2)CCC1 | 62 to 63.9 °C |
| CCS(=O)(=O)c1nsc(NC(=O)NC)c1C(N)=O | 219 to 220 °C |
| CC(C)n1c(=O)c2c(-c3cc(C4CC4)on3)ncn2c2ccccc21 | 247 to 249 °C |
| CC(C)(CO)NCC(=O)N1C[C@@H](F)C[C@H]1C#N | 146 to 148 °C |
| COc1ccc(Cn2c(C)c(C=O)c3cnnc(OCc4ccccc4)c32)cc1 | 139 to 145 °C |
| CN(Cc1ccc(NC(=O)C2=Cc3cc(-c4ccc(N5CCOCC5)cc4)ccc3N(C=O)CC2)cc1)C1CCOCC1 | 234 to 243 °C |
| C=CCC(CC)(CC=C)C(=O)O[C@H]1C[C@H](O)C=C2C=C[C@H](C)[C@H](CC[C@@H]3C[C@@H](O)CC(=O)O3)[C@H]21 | 99 to 100 °C |
| O=C1NCCN1S(=O)(=O)N1CCCCC1 | 201 °C |
| C=CCc1cc(C(C)=O)c(O)cc1OCCCCCC(=O)OC | 64 to 65 °C |
| CC(C)(C)OC(=O)c1ccc(OCCNC(=O)C2Cc3ccccc3N2S(=O)(=O)c2ccc(-c3ccc(F)cc3F)cc2)cc1 (stereo unspecified) | 80 °C |
| COC(=O)c1ccc(S(C)(=O)=O)c(C(=O)NN)c1Cl | 85 to 95 °C |

| Structure (SMILES) | melting point |
| --- | --- |
| COc1cc2ncnc(N3c4ccccc4CC3CO)c2cc1OC (stereo unspecified) | 146 to 147 °C |
| CCC(C#N)(Cn1cncn1)c1ccc(Br)cc1 (stereo unspecified) | 68 to 70 °C |
| CCCCCCCCCCCCCCCCOCCSCCOC(=O)N(Cc1ccccn1)C(C)=O | 41 to 44 °C |
| CCCCCCCCc1ccc(C(=O)CCCCC(=O)O)cc1 | 96 to 97 °C |
| N#CC(Cc1cccc(F)c1)n1nnc2cc3c(cc2c1=O)OC1CCCN1C3=O (stereo unspecified) | 182 to 184 °C |
| CCOC(=O)C1=CC2(CCC1S(=O)(=O)Nc1ccc(F)cc1Cl)OC(CC)C(CC)(CC)O2 (stereo unspecified) | 124 to 126 °C |
| O=C(O)C(=O)c1cc2ccccc2s1 | 176 °C |
| CC(=O)N[C@@H](C)COc1ccc2nc(-c3ccc(OCC4CC4)c(F)c3)oc2c1 | 174 °C |
| CCN(CC)c1ccc(N(c2ccc(N(CC)CC)cc2)C2(c3ccc(N(CC)CC)cc3C)OC(=O)c3ccccc32)cc1 (stereo unspecified) | 58 to 71 °C |
| CCCCOC(=O)NS(=O)(=O)CCc1c(C(F)(F)F)nn(C)c1-n1ccc2cc(Cl)cnc21 | 136 to 137 °C |
| CS(=O)(=O)Nc1ccnn1-c1ncc(Cl)cc1Cl | 52 to 54 °C |
| CC(C)n1c(=O)n(C(=O)NCC2(O)CCN(CC3(C(=O)O)CCCCC3)CC2)c2ccccc21 | 184 °C |
| CCCC(C=NNC(C)=O)c1ccc(Cl)cc1Cl (stereo unspecified) | 145 to 147 °C |
| C[C@@H](CO)COc1ccc(-c2ccc(Cl)nn2)cc1 | 134 to 138 °C |
| CCOC(=O)C(=CNc1sc(I)cc1C(=O)OC)C(=O)OCC | 163 to 164 °C |
| O=C1C(=O)c2ccc(Br)cc2C2=C1SCC1(CCN(C(=O)c3cccc(Cl)c3)CC1)O2 | 135 to 140 °C |
| Cc1ccnc2c1nc(-c1cccnc1N)n2-c1ccc(CC(=O)Nc2ccccc2)cc1 | 236 to 238 °C |
| CC(C)(C)c1ccc2c(O)ccnc2c1 | 207 to 209 °C |
| CNC(=O)N(C)C(CCSC)P(=O)(O)O (stereo unspecified) | 164 to 167 °C |
| O=C1Nc2cc(F)ccc2C12COc1cc3c(cc12)CCO3 (stereo unspecified) | 249 to 251 °C |
| CN1CCN(c2cc(Cl)cc3c2c(=O)n(Cc2ccc(Br)cc2)c(=O)n3Cc2ccccc2)CC1 | 93 to 98 °C |
| c1ccc(Oc2ccncc2)cc1 | 46 to 49 °C |
| CC(c1ccccc1)n1ncc(-c2nc(-c3ccco3)n[nH]2)c1N (stereo unspecified) | 175 to 176 °C |
| CC(=O)OCCc1nc2c(N)nc3ccccc3c2n1CC(C)C | 187 to 189 °C |
